Data reported in patent US20260138981A1, “DIHYDROFOLATE REDUCTASE INHIBITORS FOR ANTI-BIOTIC RESISTANT INFECTIONS” (THE TRUSTEES OF PRINCETON UNIVERSITY, priority 2022, published 2026).

How the values were obtained:
[1] = tested on: P. aeruginosa PA14; experiment: Colony forming units (CFU) counting after 4-hour treatment; format: cell-based; settings: rich media, PA14, 2×MIC, CFU/mL
Experimental: Data points represent 3 biological replicates with 3 technical replicates. Mean±SD are shown.
P. aeruginosa PA14 overnight cultures were diluted 1:100 and grown to exponential phase (OD600=0.4-0.6). Cultures were diluted 1:10 and treated with antibiotic. At each time point, 150 μL of culture was removed, serial diluted 1:10 six times, and plated onto LB Agar plates. Plates were grown overnight at 37° C. after which visible colonies were counted. CFU/mL was reported from dilutions in which ˜10-100 single colonies were visible.

[2] = tested on: folate metabolism in P. aeruginosa; experiment: Metabolomics (LC-MS metabolite abundance); format: cell-based; settings: PA14, 2×MIC for 15 min, vs solvent control; P=0.0186 and 0.0196
Experimental: Metabolite abundance was quantified in comparison to the solvent only control. Data represents mean±SD for 3 biological replicates. P values were calculated using unpaired t-test using Prism 9 (P values≤0.05)
To test the ability of fluorofolin to inhibit P. aeruginosa DHFR in vivo, metabolomics were performed. As a positive control for DHFR inhibition, we turned to TMP.
Overnight P. aeruginosa PA14 cultures were diluted 1:150 in Gutnick Minimal Media and grown to early-mid exponential phase (OD600=0.4-0.6).
LC-MS analysis of metabolites was performed on Orbitrap Exploris 240 mass spectrometer coupled with hydrophilic interaction liquid chromatography (HILIC)^64. […] Flow rate was 0.15 mL/min, and column temperature was set at 25° C. […] The orbitrap resolution was 180,000 at m/z of 200. The maximum injection time was 200 ms, and the automatic gain control (AGC) target was 1000%. Raw mass spectrometry data were converted to mzXML format by MSConvert (ProteoWizard). Pick-peaking was done on El Maven (v0.8.0, Elucidata).

[3] = tested on: P. aeruginosa PA14; experiment: Murine thigh infection model of PA14; format: in vivo, mouse; settings: 24 hours
Experimental: FIG. 2C quantifies treatment of mice with fluorofolin (SC) with or without SMX 100 mg/kg (IP).
FIG. 2D characterizes Fluorofolin and SMX treatment of mice fed a diet of thymidine-supplemented chow during PA14 infection. Mice were treated 1 and 12 hours post infection (n=5 for each group). P values from Tukey's multiple comparisons test (P-values≤0.0001).
To investigate the ability of fluorofolin to clear a P. aeruginosa infection in vivo, a murine thigh infection model of PA14 was employed. The maximum tolerated dose of fluorofolin was determined to be 25 mg/kg administered subcutaneously (SC). […] We note that this dose of SMX was previously used to mimic clinically-relevant levels of SMX used for cotreatment with TMP in humans. Mice were inoculated with 5.33 log CFU of P. aeruginosa PA14 CFU of PA14 and treated SC with fluorofolin at 25 mg/kg at 1 and 12 hours post infection. Thighs were harvested 24 hours post infection to determine bacterial load.
It was also sought to support the feasibility of thymidine supplementation in vivo by testing the hypothesis that fluorofolin should remain active in the presence of thymidine supplementation. […]
Female 5-6-week-old CD-1 mice were made neutropenic through intraperitoneal (IP) cyclophosphamide treatment (Cytoxan) prior to this study. […] In vivo efficacy was evaluated by the University of North Texas Health Science Center (Fort Worth, Texas).

[4] = tested on: P. aeruginosa PA14; experiment: Growth with TMI supplementation; format: cell-based; settings: P. aeruginosa PA14, fluorofolin 2×MIC, 0.3 mM TMI
Experimental: FIGS. 3A and 3B characterize the growth of E. coli MG1655 and P. aeruginosa PA14 respectively in 0.3 mM thymine, methionine, and inosine (TMI) supplemented media and treated with fluorofolin at 2×MIC or DMSO. Curves represent optical at 600 nm (OD600) of 2 biological replicates. Mean±SD are shown.
Where listed, growth media were prepared according manufacturer recommendations: LB Broth and LB Broth supplemented with 0.3 mM thymine (BD Biosciences 244610, Alfa Aesar A15879), 0.3 mM methionine (Sigma-Aldrich M9625), 0.3 mM inosine (EMD Millipore 4060), Mueller Hinton II Broth (Cation-Adjusted)/(CAMHB) (BD 212322) or 0.3 mM thymidine (Sigma-Aldrich T1895), Gutnick Minimal Media (1.0 g/L K2SO4, 13.5 g/L K2HPO4, 4.7 g/L KH2PO4, 0.1 g/L of MgSO4-7H2O, 10 mM NH4Cl as a nitrogen source, and 0.4% w/v glucose as a carbon source)^62.

[5] = tested on: co-cultures of E. coli MG1655 and P. aeruginosa PA14; experiment: Growth competition assay (co-culture); format: cell-based; settings: 50 μg/mL fluorofolin, 1:1 inoculum, overnight, CFU
Experimental: FIG. 3C characterizes competition of P. aeruginosa PA14 and E. coli MG1655 in LB or TMI-supplemented LB media. PA14 and E. coli MG1655 were inoculated at a 1:1 ratio and grown overnight in the presence or absence of 50 μg/mL fluorofolin in each media condition. The following day CFU were counted on LB-agar or Pseudomonas selection agar plates to determine CFU/mL of each species. Data represent mean±SD of triplicate biological and triplicate technical replicates. P values were calculated using unpaired t-test using Prism 9 (P value≤0.001)
Overnight cultures of P. aeruginosa PA14 or E. coli MG1655 were diluted 1:150 into LB Broth in the presence of DMSO or 50 μg/mL fluorofolin with or without TMI supplementation and grown for 16 hours at 37° C. Cultures of each species were grown separately as well as being mixed 1:1. Cultures were plated onto LB Agar or Pseudomonas Selection Agar (Sigma-Aldrich 17208) and CFU counting was carried out as described above. To control for appropriate, Pseudomonas selection, E. coli MG1655 was plated onto Pseudomonas Selection Agar and an absence of colonies was observed. The number of colonies on Pseudomonas Selection Agar plates was reported as the CFU/mL of P. aeruginosa. To calculate CFU/mL of E. coli MG1655, CFU/mL were determined from LB Agar plates, and the CFU/mL of P. aeruginosa were subtracted from these values.

For Nc1nc(N)c2c(ccc3c2ccn3Cc2ccnc(F)c2)n1 [fluorofolin], the “type of antibacterial activity” value [1] was “bacteriostatic”, the “abundance of AICAR and dUMP” value [2] was “significant upregulation” and the “growth of PA14 in thigh (bacterial load)” value ([3]; fluorofolin 25 mg/kg SC + SMX 100 mg/kg IP at 1 and 12 hours post infection, vs no treatment and SMX alone, P<0.0001) was “significantly inhibited the growth of PA14”. For the same molecule, the “P. aeruginosa load in thigh, thymidine-supplemented diet” value ([3]; fluorofolin and SMX, mice fed thymidine-supplemented chow, vs untreated mice) was “significant reduction”, the “rescue of growth inhibition by TMI supplementation” value [4] was “unable to rescue” and the “effect on co-culture, absence of TMI supplementation” value ([5]; LB) was “effectively killed both E. coli and P. aeruginosa”. For the same molecule, the “effect on co-culture, presence of TMI supplementation” value ([5]; TMI-supplemented LB) was “selectively inhibited the growth of P. aeruginosa but not E. coli”.
